Source: US10800791B2, “Triazole ACC inhibitors and uses thereof” (Gilead Apollo, LLC, priority 2015, dated 2020)
Converted amounts (≈) assume the structure as drawn. Where two headings read alike, the source gives them in different places.

Columns and labels:
[1] = system: Phytophthora capsici (Pc); test: Growth inhibition assay of fungal pathogens, Pc; format: cell-based; details: 48 h
How it was run: (§1)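 Pathogen growth in 17% V8 broth is measured by OD600 at 24 and 48 hours, after blank subtraction, in the presence of compound at 50, 10 and 2 ppm or 2, 0.4 and 0.08 ppm. Inhibition in percent comes from 48-hour readings against the DMSO control.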

[2] = system: Diplodia maydis (Dm); test: Growth inhibition assay of fungal pathogens, Dm; format: cell-based; details: Stenocarpella maydis, 48 h
How it was run: as §1

[3] = system: Rhizoctonia solani (Rs); test: Growth inhibition assay of fungal pathogens, Rs; format: cell-based; details: 48 h
[4] = target: human (hACC2) (Homo sapiens, UniProt O00763); test: In vitro ACC inhibition assay (ADP-Glo), hACC2; format: biochemical; details: 5 nM ACC2, 20 μM ATP, 20 μM acetyl-CoA
human (hACC2), sequence (O00763 whole entry): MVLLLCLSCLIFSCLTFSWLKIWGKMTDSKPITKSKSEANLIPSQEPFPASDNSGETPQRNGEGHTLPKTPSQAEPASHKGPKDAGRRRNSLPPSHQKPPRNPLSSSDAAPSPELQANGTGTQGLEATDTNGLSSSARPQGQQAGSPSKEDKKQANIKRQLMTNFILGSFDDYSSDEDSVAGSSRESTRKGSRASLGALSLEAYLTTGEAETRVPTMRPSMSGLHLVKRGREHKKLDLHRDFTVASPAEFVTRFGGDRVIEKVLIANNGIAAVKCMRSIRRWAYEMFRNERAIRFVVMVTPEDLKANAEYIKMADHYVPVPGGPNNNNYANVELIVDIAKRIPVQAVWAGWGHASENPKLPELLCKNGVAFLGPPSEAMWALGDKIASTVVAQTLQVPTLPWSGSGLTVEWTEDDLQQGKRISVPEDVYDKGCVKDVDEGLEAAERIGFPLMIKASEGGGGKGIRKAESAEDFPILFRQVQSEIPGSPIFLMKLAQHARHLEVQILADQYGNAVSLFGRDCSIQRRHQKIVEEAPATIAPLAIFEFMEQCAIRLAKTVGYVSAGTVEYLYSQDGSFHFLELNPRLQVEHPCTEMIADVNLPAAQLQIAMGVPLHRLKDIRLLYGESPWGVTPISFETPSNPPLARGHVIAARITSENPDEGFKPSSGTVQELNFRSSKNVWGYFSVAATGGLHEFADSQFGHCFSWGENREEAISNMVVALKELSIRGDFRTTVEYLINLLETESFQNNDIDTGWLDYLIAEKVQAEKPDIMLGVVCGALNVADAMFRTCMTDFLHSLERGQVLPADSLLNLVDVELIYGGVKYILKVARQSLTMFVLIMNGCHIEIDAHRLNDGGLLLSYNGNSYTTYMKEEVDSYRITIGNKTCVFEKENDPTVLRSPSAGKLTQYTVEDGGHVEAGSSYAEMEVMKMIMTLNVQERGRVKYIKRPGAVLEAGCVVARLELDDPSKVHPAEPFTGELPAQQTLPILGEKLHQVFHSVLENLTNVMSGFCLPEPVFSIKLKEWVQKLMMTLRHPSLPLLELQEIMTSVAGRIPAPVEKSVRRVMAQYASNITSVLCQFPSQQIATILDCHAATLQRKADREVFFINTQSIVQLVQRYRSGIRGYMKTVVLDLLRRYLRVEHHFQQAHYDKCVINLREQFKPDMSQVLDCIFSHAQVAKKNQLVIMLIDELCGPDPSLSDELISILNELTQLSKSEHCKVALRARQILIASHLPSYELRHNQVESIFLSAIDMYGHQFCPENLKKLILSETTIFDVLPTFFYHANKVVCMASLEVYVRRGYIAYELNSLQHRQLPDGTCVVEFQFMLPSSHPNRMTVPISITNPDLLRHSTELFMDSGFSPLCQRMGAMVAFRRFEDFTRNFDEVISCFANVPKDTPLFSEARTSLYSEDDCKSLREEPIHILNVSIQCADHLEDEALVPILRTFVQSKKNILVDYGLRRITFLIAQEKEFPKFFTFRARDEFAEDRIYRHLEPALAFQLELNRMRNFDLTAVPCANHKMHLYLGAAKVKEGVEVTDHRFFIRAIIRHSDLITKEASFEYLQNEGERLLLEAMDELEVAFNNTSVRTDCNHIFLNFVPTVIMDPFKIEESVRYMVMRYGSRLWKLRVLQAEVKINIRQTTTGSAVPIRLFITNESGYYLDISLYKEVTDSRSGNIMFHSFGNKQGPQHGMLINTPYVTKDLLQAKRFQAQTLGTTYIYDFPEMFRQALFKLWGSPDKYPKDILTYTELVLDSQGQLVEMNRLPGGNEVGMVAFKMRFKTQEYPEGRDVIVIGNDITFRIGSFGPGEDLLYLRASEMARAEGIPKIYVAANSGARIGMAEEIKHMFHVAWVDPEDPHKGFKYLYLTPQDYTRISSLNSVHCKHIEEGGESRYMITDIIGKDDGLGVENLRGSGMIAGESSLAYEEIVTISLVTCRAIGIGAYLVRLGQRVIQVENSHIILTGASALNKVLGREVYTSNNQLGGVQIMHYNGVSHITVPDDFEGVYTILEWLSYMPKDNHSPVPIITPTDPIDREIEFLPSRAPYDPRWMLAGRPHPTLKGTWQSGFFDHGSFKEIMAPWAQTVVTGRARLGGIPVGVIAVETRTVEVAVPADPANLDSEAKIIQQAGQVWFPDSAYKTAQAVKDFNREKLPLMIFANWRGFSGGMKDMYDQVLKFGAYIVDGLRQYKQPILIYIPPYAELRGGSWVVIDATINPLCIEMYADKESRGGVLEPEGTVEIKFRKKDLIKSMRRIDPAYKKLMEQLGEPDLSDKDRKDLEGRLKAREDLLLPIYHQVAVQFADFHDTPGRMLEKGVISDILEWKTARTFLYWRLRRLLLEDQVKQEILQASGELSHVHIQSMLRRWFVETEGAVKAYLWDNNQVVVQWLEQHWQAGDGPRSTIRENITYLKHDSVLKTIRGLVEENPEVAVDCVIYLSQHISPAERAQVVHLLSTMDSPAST
Experimental: The detailed procedure is as follows. […] 10 μL ADP glo reagent was added. […] 20 μL kinase detection reagent was added.

[5] = system: Collectotrichum graminicola (Cg); test: Growth inhibition assay of fungal pathogens, Cg; format: cell-based; details: 48 h
How it was run: as §1

[6] = system: Septoria tritici (St); test: Growth inhibition assay of fungal pathogens, St; format: cell-based; details: Zymoseptoria tritici, 48 h
How it was run: as §1

[7] = system: Fusarium virguliforme (Fv); test: Growth inhibition assay of fungal pathogens, Fv; format: cell-based; details: 48 h
How it was run: as §1

[8] = system: C. krusei; test: Antifungal Activity Assay (broth microtiter MIC), C. krusei; format: cell-based, Candida krusei; details: Pichia kudriavzevii, ATCC6258, 48 h
How it was run: (§2)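 Broth microdilution per CLSI M27-A3 in RPMI 1640+MOPS, inoculum 2.5×10^3 CFU/mL final from overnight Sabouraud dextrose agar cultures at 35° C. Compounds diluted from DMSO stock to 128 μg/mL in water. MIC read visually versus growth control at 48 h.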

[9] = system: C. parapsilosis; test: Antifungal Activity Assay (broth microtiter MIC), C. parapsilosis; format: cell-based, Candida parapsilosis; details: Lodderomyces parapsilosis, ATCC22019, 48 h
How it was run: as §2

[10] = system: Fusarium moniliforme (Fm); test: Growth inhibition assay of fungal pathogens, Fm; format: cell-based; details: for IC90: Fusarium verticillioides, 48 h, read-out: Concentration at 90% Inhibition Fm
How it was run: as §1

[11] = system: C. albicans; test: Antifungal Activity Assay (broth microtiter MIC), C. albicans; format: cell-based, Candida albicans; details: Candida albicans, ATCC90028, 48 h
How it was run: as §2

[12] = Fusarium moniliforme, growth inhibition at 48 hours vs 2% DMSO control

`COc1ccc(F)cc1[C@H](Cn1c(=O)n(CC(=O)NC(C)C)c(=O)c2c(C)c(-n3nccn3)sc21)OCCO` [Compound I-82, (R)-2-(1-(2-(5-fluoro-2-methoxyphenyl)-2-(2-hydroxy-ethoxy)ethyl)-5-methyl-2,4-dioxo-6-(2H-1,2,3-triazol-2-yl)-1,4-dihydro-thieno[2,3-d]pyrimidin-3(2H)-yl)-N-isopropylacetamide] was tested, and the IC90 ([1]; read-out: Concentration at 90% Inhibition Pc, Phytophthora capsici, growth inhibition at 48 hours vs 2% DMSO control) was > 50 µg/mL, the IC90 ([1]; read-out: Concentration at 90% Inhibition Pc, Phytophthora capsici, growth inhibition vs 2% DMSO control at 48 hours) was > 50 µg/mL and the IC90 ([2]; read-out: Concentration at 90% Inhibition Dm, Diplodia maydis, growth inhibition at 48 hours vs 2% DMSO control) was > 50 µg/mL. The IC90 ([2]; read-out: Concentration at 90% Inhibition Dm, Diplodia maydis, growth inhibition vs 2% DMSO control at 48 hours) was > 50 µg/mL, the IC90 ([3]; read-out: Concentration at 90% Inhibition Rs, Rhizoctonia solani, mycelial plugs, growth inhibition at 48 hours vs 2% DMSO control) was 2 µg/mL (≈ 3.57 µM) and the IC90 ([3]; read-out: Concentration at 90% Inhibition Rs, Rhizoctonia solani, mycelial plugs, growth inhibition vs 2% DMSO control at 48 hours) was 2 µg/mL (≈ 3.57 µM). For the same compound, the IC50 ([4]; Table 2a) was 1 to 5 nM, the IC50 ([4]; Table 2b, additional results) was 1 to 5 nM and the IC90 ([5]; read-out: Concentration at 90% Inhibition Cg, Collectotrichum graminicola, growth inhibition at 48 hours vs 2% DMSO control) was 2 µg/mL (≈ 3.57 µM). The IC90 ([5]; read-out: Concentration at 90% Inhibition Cg, Collectotrichum graminicola, growth inhibition vs 2% DMSO control at 48 hours) was 2 µg/mL (≈ 3.57 µM), the IC90 ([6]; read-out: Concentration at 90% Inhibition St, Septoria tritici, growth inhibition at 48 hours vs 2% DMSO control) was > 50 µg/mL and the IC90 ([6]; read-out: Concentration at 90% Inhibition St, Septoria tritici, growth inhibition vs 2% DMSO control at 48 hours) was > 50 µg/mL. For the same compound, the IC90 ([7]; read-out: Concentration at 90% Inhibition Fv, Fusarium virguliforme, growth inhibition at 48 hours vs 2% DMSO control) was 2 µg/mL (≈ 3.57 µM), the IC90 ([7]; read-out: Concentration at 90% Inhibition Fv, Fusarium virguliforme, growth inhibition vs 2% DMSO control at 48 hours) was 2 µg/mL (≈ 3.57 µM) and the MIC ([8]; read-out: MIC, C. krusei ATCC 6258, Table 3a, 3 replicates, MIC recorded at 48 h) was 2.1 to 4 µg/mL (≈ 3.75 to 7.14 µM). The MIC ([8]; read-out: MIC, C. krusei ATCC 6258, Table 3b (additional results), 3 replicates, MIC recorded at 48 h) was 2.01 to 4 µg/mL (≈ 3.59 to 7.14 µM), the MIC ([9]; read-out: MIC, C. parapsilosis ATCC 22019, Table 3a, 3 replicates, MIC recorded at 48 h) was 2.1 to 4 µg/mL (≈ 3.75 to 7.14 µM) and the MIC ([9]; read-out: MIC, C. parapsilosis ATCC 22019, Table 3b (additional results), 3 replicates, MIC recorded at 48 h) was 2.01 to 4 µg/mL (≈ 3.59 to 7.14 µM). For the same compound, the “Concentration at 90% Inhibition Fm” value [10, 12] was “AA (compound concentration of 0.08 ppm at 90% inhibition of fungal pathogens)”, the IC90 [10] was 0.08 µg/mL (≈ 0.143 µM) and the MIC ([11]; read-out: MIC, C. albicans ATCC 90028, Table 3a, 3 replicates, MIC recorded at 48 h) was 2.1 to 4 µg/mL (≈ 3.75 to 7.14 µM). It also gave an MIC ([11]; read-out: MIC, C. albicans ATCC 90028, Table 3b (additional results), 3 replicates, MIC recorded at 48 h) of 2.01 to 4 µg/mL (≈ 3.59 to 7.14 µM).

For `COc1ccc(F)cc1[C@H](Cn1c(=O)n([C@H](C)C(=O)NC2CCC2)c(=O)c2c(C)c(-n3nccn3)sc21)OCCO` [Compound I-84, (R)—N-cyclobutyl-2-(1-((R)-2-(5-fluoro-2-methoxyphenyl)-2-(2-hydroxyethoxy)ethyl)-5-methyl-2,4-dioxo-6-(2H-1,2,3-triazol-2-yl)-1,4-dihydrothieno[2,3-d]pyrimidin-3(2H)-yl)propanamide], the IC90 ([1]; growth inhibition at 48 hours vs 2% DMSO control, read-out: Concentration at 90% Inhibition Pc) was 2 µg/mL (≈ 3.41 µM), the IC90 ([1]; growth inhibition vs 2% DMSO control at 48 hours, read-out: Concentration at 90% Inhibition Pc) was 2 µg/mL (≈ 3.41 µM) and the IC90 ([2]; Diplodia maydis, growth inhibition at 48 hours vs 2% DMSO control, read-out: Concentration at 90% Inhibition Dm) was 0.4 µg/mL (≈ 0.682 µM). It also gave an IC90 ([2]; Diplodia maydis, growth inhibition vs 2% DMSO control at 48 hours, read-out: Concentration at 90% Inhibition Dm) of 0.4 µg/mL (≈ 0.682 µM), an IC90 ([3]; mycelial plugs, growth inhibition at 48 hours vs 2% DMSO control, read-out: Concentration at 90% Inhibition Rs) of 0.08 µg/mL (≈ 0.136 µM) and an IC90 ([3]; mycelial plugs, growth inhibition vs 2% DMSO control at 48 hours, read-out: Concentration at 90% Inhibition Rs) of 0.08 µg/mL (≈ 0.136 µM). The IC50 ([4]; Table 2a) was 5 to 10 nM, the IC50 ([4]; Table 2b, additional results) was 5 to 10 nM and the IC90 ([5]; Collectotrichum graminicola, growth inhibition at 48 hours vs 2% DMSO control, read-out: Concentration at 90% Inhibition Cg) was 0.08 µg/mL (≈ 0.136 µM). The IC90 ([5]; Collectotrichum graminicola, growth inhibition vs 2% DMSO control at 48 hours, read-out: Concentration at 90% Inhibition Cg) was 0.08 µg/mL (≈ 0.136 µM), the IC90 ([6]; Septoria tritici, growth inhibition at 48 hours vs 2% DMSO control, read-out: Concentration at 90% Inhibition St) was 2 µg/mL (≈ 3.41 µM) and the IC90 ([6]; Septoria tritici, growth inhibition vs 2% DMSO control at 48 hours, read-out: Concentration at 90% Inhibition St) was 10 µg/mL (≈ 17 µM). For the same compound, the IC90 ([7]; growth inhibition at 48 hours vs 2% DMSO control, read-out: Concentration at 90% Inhibition Fv) was 0.4 µg/mL (≈ 0.682 µM), the IC90 ([7]; growth inhibition vs 2% DMSO control at 48 hours, read-out: Concentration at 90% Inhibition Fv) was 0.4 µg/mL (≈ 0.682 µM) and the MIC ([8]; Table 3a, ATCC 6258, 3 replicates, MIC recorded at 48 h, read-out: MIC, C. krusei ATCC 6258) was 0.25 to 1 µg/mL (≈ 0.426 to 1.7 µM). The MIC ([8]; Table 3b (additional results), ATCC 6258, 3 replicates, MIC recorded at 48 h, read-out: MIC, C. krusei ATCC 6258) was 0.25 to 1 µg/mL (≈ 0.426 to 1.7 µM), the MIC ([9]; Table 3a, ATCC 22019, 3 replicates, MIC recorded at 48 h, read-out: MIC, C. parapsilosis ATCC 22019) was 0.25 to 1 µg/mL (≈ 0.426 to 1.7 µM) and the MIC ([9]; Table 3b (additional results), ATCC 22019, 3 replicates, MIC recorded at 48 h, read-out: MIC, C. parapsilosis ATCC 22019) was 0.25 to 1 µg/mL (≈ 0.426 to 1.7 µM). It also gave an IC90 [10, 12] of 0.08 µg/mL (≈ 0.136 µM), an IC90 ([10]; Fusarium moniliforme, growth inhibition vs 2% DMSO control at 48 hours) of 0.08 µg/mL (≈ 0.136 µM) and an MIC ([11]; Table 3a, ATCC 90028, 3 replicates, MIC recorded at 48 h, read-out: MIC, C. albicans ATCC 90028) of 1.1 to 2 µg/mL (≈ 1.88 to 3.41 µM). The MIC ([11]; Table 3b (additional results), ATCC 90028, 3 replicates, MIC recorded at 48 h, read-out: MIC, C. albicans ATCC 90028) was 2.01 to 4 µg/mL (≈ 3.43 to 6.82 µM).
